According to ChEMBL document CHEMBL4038272, “Synthesis and biological evaluation of novel podophyllotoxin-NSAIDs conjugates as multifunctional anti-MDR agents against resistant human hepatocellular carcinoma Bel-7402/5-FU cells” (Eur J Med Chem, 2017):
Active and inactive are the calls of the source. The calls are words filed in the database; no cut-off is given here.

Tests used:
[1] = target: Signal transducer and activator of transcription 3 (Homo sapiens) (UniProt P40763); assay: Effect on STAT3 phosphorylation in human Bel7402/5-FU cells assessed as ratio of phosphorylated STAT3 to beta-actin level at 2 uM after 48 hrs by Western blot analysis (reference value: 0.3); assay type: cell-based
Chain of Signal transducer and activator of transcription 3 (Homo sapiens) (P40763 whole entry): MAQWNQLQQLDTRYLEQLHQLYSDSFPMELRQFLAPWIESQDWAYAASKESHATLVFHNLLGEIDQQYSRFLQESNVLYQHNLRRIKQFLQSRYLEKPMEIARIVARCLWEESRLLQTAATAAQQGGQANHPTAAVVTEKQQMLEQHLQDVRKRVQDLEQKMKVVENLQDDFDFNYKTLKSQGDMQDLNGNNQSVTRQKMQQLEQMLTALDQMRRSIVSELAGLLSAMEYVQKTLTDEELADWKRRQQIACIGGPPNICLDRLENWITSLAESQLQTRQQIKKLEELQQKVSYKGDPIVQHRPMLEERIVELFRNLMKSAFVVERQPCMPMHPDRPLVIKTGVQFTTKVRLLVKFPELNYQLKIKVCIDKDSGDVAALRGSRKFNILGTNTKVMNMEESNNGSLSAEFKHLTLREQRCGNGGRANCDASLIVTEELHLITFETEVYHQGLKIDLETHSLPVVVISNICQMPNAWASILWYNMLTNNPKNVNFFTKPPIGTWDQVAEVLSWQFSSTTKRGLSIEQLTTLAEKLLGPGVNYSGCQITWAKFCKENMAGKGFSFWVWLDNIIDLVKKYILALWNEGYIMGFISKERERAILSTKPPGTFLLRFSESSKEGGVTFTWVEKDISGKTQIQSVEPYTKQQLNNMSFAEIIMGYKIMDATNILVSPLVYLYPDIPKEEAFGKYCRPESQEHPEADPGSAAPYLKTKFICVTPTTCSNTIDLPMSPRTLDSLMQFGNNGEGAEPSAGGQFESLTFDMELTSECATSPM

Bel7402/5-FU [2] = assay: Effect on VEGFR2 expression in human Bel7402/5-FU cells assessed as ratio of VEGFR2 to beta-actin level at 2 uM after 48 hrs by Western blot analysis (reference value: 0.25); assay type: functional
Bel7402/5-FU [3] = assay: Cell cycle arrest in human Bel7402/5-FU cells assessed as accumulation at G2 phase at 2 uM after 48 hrs by propidium iodide staining based flow cytometry (reference value: 35.16%); assay type: functional
Bel7402/5-FU [4] = assay: Effect on cyclinB1 expression in human Bel7402/5-FU cells assessed as ratio of cyclinB1 to beta-actin level at 2 uM after 48 hrs by Western blot analysis (reference value: 0.53); assay type: functional
Bel7402/5-FU [5] = assay: Reduction in microtubule density in human Bel7402/5-FU cells at 2 uM after 24 to 48 hrs by DAPI staining based immunofluorescence microscopic method; assay type: functional, cell-based
Bel7402/5-FU [6] = assay: Induction of apoptosis in human Bel7402/5-FU cells assessed as ratio of cleaved caspase-9 to beta-actin level at 2 uM after 48 hrs by Western blot analysis (reference value: 0.17); assay type: functional
Bel7402/5-FU [7] = assay: Antimigratory activity in human Bel7402/5-FU cells at 2 uM after 24 hrs by wound healing assay; assay type: functional, cell-based
Bel7402/5-FU [8] = assay: Effect on CDK1 expression in human Bel7402/5-FU cells assessed as ratio of CDK1 to beta-actin level at 2 uM after 48 hrs by Western blot analysis (reference value: 0.33); assay type: functional
Bel7402/5-FU [9] = assay: Induction of apoptosis in human Bel7402/5-FU cells assessed as live cells at 2 uM after 48 hrs by Annexin V-APC/7-AAD staining based flow cytometry (reference value: 91.08%); assay type: functional
Bel7402/5-FU [10] = assay: Effect on MRP1 expression in human Bel7402/5-FU cells assessed as ratio of MRP1 to beta-actin level at 2 uM after 48 hrs by Western blot analysis (reference value: 0.58); assay type: functional
[11] = target: RAC-alpha serine/threonine-protein kinase (Homo sapiens) (UniProt P31749); assay: Effect on AKT phosphorylation in human Bel7402/5-FU cells assessed as ratio of phosphorylated AKT to beta-actin level at 2 uM after 48 hrs by Western blot analysis (reference value: 0.39); assay type: cell-based
Chain of RAC-alpha serine/threonine-protein kinase (Homo sapiens) (P31749 whole entry): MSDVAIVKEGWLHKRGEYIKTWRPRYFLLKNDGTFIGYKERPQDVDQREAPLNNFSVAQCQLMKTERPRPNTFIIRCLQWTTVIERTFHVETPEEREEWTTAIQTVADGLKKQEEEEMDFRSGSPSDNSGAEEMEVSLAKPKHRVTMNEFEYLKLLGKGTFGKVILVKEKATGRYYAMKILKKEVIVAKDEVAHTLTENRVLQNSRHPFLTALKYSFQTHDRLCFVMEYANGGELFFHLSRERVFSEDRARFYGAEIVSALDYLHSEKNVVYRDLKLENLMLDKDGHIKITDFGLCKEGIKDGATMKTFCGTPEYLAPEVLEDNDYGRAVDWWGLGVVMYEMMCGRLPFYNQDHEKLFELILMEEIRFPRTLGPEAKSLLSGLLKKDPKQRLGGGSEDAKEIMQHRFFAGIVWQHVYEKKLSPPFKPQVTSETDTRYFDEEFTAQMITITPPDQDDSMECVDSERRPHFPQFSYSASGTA

Bel7402/5-FU [12] = assay: Induction of apoptosis in human Bel7402/5-FU cells assessed as morphological changes at 2 uM after 24 hrs by Hoechst 33342 staining based fluorescent microscopic method; assay type: functional, cell-based
Bel7402/5-FU [13] = assay: Induction of apoptosis in human Bel7402/5-FU cells assessed as condensed nuclei at 2 uM after 24 hrs by Hoechst 33342 staining based fluorescent microscopic method; assay type: functional, cell-based
Bel7402/5-FU [14] = assay: Induction of apoptosis in human Bel7402/5-FU cells assessed as ratio of cleaved PARP to beta-actin level at 2 uM after 48 hrs by Western blot analysis (reference value: 0.2); assay type: functional
Bel7402/5-FU [15] = assay: Induction of apoptosis in human Bel7402/5-FU cells assessed as reduction in cell number at 2 uM after 24 hrs by Hoechst 33342 staining based fluorescent microscopic method; assay type: functional
Bel7402/5-FU [16] = assay: Effect on P-gp expression in human Bel7402/5-FU cells assessed as ratio of P-gp to beta-actin level at 2 uM after 48 hrs by Western blot analysis (reference value: 0.59); assay type: functional
Bel7402/5-FU [17] = assay: Cell cycle arrest in human Bel7402/5-FU cells assessed as accumulation at S phase at 2 uM after 48 hrs by propidium iodide staining based flow cytometry (reference value: 12.62%); assay type: functional
Bel7402/5-FU [18] = assay: Induction of apoptosis in human Bel7402/5-FU cells assessed as ratio of cleaved caspase-8 to beta-actin level at 2 uM after 48 hrs by Western blot analysis (reference value: 0.17); assay type: functional
Bel7402/5-FU [19] = assay: Effect on E-cadherin expression in human Bel7402/5-FU cells assessed as ratio of E-cadherin to beta-actin level at 2 uM after 48 hrs by Western blot analysis (reference value: 0.2); assay type: functional
Bel7402/5-FU [20] = assay: Induction of apoptosis in human Bel7402/5-FU cells assessed as ratio of cleaved caspase-3 to beta-actin level at 2 uM after 48 hrs by Western blot analysis (reference value: 0.19); assay type: functional
[21] = Resistant factor, ratio of IC50 for human Bel7402/5-FU cells to IC50 for human Bel7402 cells; assay type: functional
Bel7402/5-FU [22] = assay: Induction of apoptosis in human Bel7402/5-FU cells assessed as late apoptotic cells at 2 uM after 48 hrs by Annexin V-APC/7-AAD staining based flow cytometry (reference value: 3%); assay type: functional
Bel-7402 = assay: Antiproliferative activity against human Bel7402 cells after 72 hrs by CCK-8 assay; assay type: functional, cell-based; conditions: Bel-7402, 72 h
Bel7402/5-FU [23] = assay: Effect on cyclinA expression in human Bel7402/5-FU cells assessed as ratio of cyclinA to beta-actin level at 2 uM after 48 hrs by Western blot analysis (reference value: 0.39); assay type: functional
Bel7402/5-FU [24] = assay: Cell cycle arrest in human Bel7402/5-FU cells assessed as accumulation at G1 phase at 2 uM after 48 hrs by propidium iodide staining based flow cytometry (reference value: 52.21%); assay type: functional
L02 = assay: Antiproliferative activity against human LO2 cells after 72 hrs by CCK-8 assay; assay type: cell-based; conditions: L02, 72 h
Bel7402/5-FU [25] = assay: Induction of apoptosis in human Bel7402/5-FU cells assessed as early apoptotic cells at 2 uM after 48 hrs by Annexin V-APC/7-AAD staining based flow cytometry (reference value: 5.24%); assay type: functional
Bel7402/5-FU [26] = assay: Effect on MMP2 expression in human Bel7402/5-FU cells assessed as ratio of MMP2 to beta-actin level at 2 uM after 48 hrs by Western blot analysis (reference value: 0.3); assay type: functional
Bel7402/5-FU [27] = assay: Effect on iNOS expression in human Bel7402/5-FU cells assessed as ratio of iNOS to beta-actin level at 2 uM after 48 hrs by Western blot analysis (reference value: 0.13); assay type: functional
Bel7402/5-FU [28] = assay: Induction of microtubule disruption in human Bel7402/5-FU cells at 2 uM after 24 to 48 hrs by DAPI staining based immunofluorescence microscopic method; assay type: functional, cell-based
Bel7402/5-FU [29] = assay: Induction of apoptosis in human Bel7402/5-FU cells at 2 uM after 24 hrs by Hoechst 33342 staining based fluorescent microscopic method; assay type: functional, cell-based
Bel7402/5-FU [30] = assay: Induction of apoptosis in human Bel7402/5-FU cells assessed as necrotic cells at 2 uM after 48 hrs by Annexin V-APC/7-AAD staining based flow cytometry (reference value: 0.58%); assay type: functional
Bel7402/5-FU [31] = assay: Effect on COX1 expression in human Bel7402/5-FU cells assessed as ratio of COX1 to beta-actin level at 2 uM after 48 hrs by Western blot analysis (reference value: 0.48); assay type: functional
Bel7402/5-FU [32] = assay: Antiproliferative activity against human Bel7402/5-FU cells after 72 hrs by CCK-8 assay; assay type: functional, cell-based
[33] = target: Mitogen-activated protein kinase; ERK1/ERK2 (Homo sapiens) (UniProt P27361+P28482); assay: Effect on ERK1/2 phosphorylation in human Bel7402/5-FU cells assessed as ratio of phosphorylated ERK1/2 to beta-actin level at 2 uM after 48 hrs by Western blot analysis (reference value: 0.59); assay type: cell-based
Chain of Mitogen-activated protein kinase; ERK1/ERK2 (Homo sapiens) (P27361 whole entry, looked up): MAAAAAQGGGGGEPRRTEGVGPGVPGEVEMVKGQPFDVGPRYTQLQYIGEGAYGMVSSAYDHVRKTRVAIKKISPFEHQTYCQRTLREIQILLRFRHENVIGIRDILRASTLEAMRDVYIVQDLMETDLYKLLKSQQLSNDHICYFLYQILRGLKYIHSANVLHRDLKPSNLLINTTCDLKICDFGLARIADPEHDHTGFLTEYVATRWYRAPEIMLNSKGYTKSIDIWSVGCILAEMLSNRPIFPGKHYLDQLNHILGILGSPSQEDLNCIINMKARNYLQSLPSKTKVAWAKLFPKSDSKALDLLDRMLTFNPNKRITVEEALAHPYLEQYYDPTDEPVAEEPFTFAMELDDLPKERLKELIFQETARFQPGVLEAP
Chain of Mitogen-activated protein kinase; ERK1/ERK2 (Homo sapiens) (P28482 whole entry, looked up): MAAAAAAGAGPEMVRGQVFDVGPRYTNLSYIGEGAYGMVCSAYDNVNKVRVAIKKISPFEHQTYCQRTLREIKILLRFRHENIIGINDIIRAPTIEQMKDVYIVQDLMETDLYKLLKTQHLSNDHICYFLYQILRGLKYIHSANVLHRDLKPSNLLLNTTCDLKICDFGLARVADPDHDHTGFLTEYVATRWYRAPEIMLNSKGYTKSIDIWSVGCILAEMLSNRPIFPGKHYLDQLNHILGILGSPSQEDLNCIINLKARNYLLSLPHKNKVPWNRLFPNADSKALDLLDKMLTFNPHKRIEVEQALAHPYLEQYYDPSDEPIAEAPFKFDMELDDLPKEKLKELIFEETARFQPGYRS

Bel7402/5-FU [34] = assay: Effect on CDK2 expression in human Bel7402/5-FU cells assessed as ratio of CDK2 to beta-actin level at 2 uM after 48 hrs by Western blot analysis (reference value: 0.43); assay type: functional
Bel7402/5-FU [35] = assay: Effect on COX2 expression in human Bel7402/5-FU cells assessed as ratio of COX2 to beta-actin level at 2 uM after 48 hrs by Western blot analysis (reference value: 0.36); assay type: functional

COc1ccc2c(c1)c(CC(=O)O[C@H]1c3cc4c(cc3[C@@H](c3cc(OC)c(OC)c(OC)c3)[C@H]3C(=O)OC[C@@H]31)OCO4)c(C)n2C(=O)c1ccc(Cl)cc1
Ratio [1]: 0.37
Ratio (Bel7402/5-FU [2]): 0.17
Activity (Bel7402/5-FU [3]): 51.09%
Ratio (Bel7402/5-FU [4]): 0.51
Activity (Bel7402/5-FU [5]): Active
Ratio (Bel7402/5-FU [6]): 0.33
Activity (Bel7402/5-FU [7]): Active
Ratio (Bel7402/5-FU [8]): 0.3
Activity (Bel7402/5-FU [9]): 66.98%
Ratio (Bel7402/5-FU [10]): 0.39
Ratio [11]: 0.4
Activity (Bel7402/5-FU [12]): Active
Activity (Bel7402/5-FU [13]): Active
Ratio (Bel7402/5-FU [14]): 0.35
Activity (Bel7402/5-FU [15]): Active
Ratio (Bel7402/5-FU [16]): 0.63
Activity (Bel7402/5-FU [17]): 21.81%
Ratio (Bel7402/5-FU [18]): 0.33
Ratio (Bel7402/5-FU [19]): 0.2
Ratio (Bel7402/5-FU [20]): 0.45
Ratio IC50 [21]: 0.36
Activity (Bel7402/5-FU [22]): 20.65%
IC50 (Bel-7402): 5900 nM
Ratio (Bel7402/5-FU [23]): 0.26
Activity (Bel7402/5-FU [24]): 27.1%
IC50 (L02): 1860 nM
Activity (Bel7402/5-FU [25]): 5.19%
Ratio (Bel7402/5-FU [26]): 0.28
Ratio (Bel7402/5-FU [27]): 0.12
Activity (Bel7402/5-FU [28]): Active
Activity (Bel7402/5-FU [29]): Active
Activity (Bel7402/5-FU [30]): 7.18%
Ratio (Bel7402/5-FU [31]): 0.42
IC50 (Bel7402/5-FU [32]): 2160 nM
Ratio [33]: 0.54
Ratio (Bel7402/5-FU [34]): 0.37
Ratio (Bel7402/5-FU [35]): 0.36
